Measured values reported in patent US10335446B2, “Methods of treating diseases using grape proteins” (priority 2015, dated 2019).
Values joined by “and” are separate entries in the source; they are usually repeats but may differ in a detail not shown here. Equal values may be shown once. Read-outs that look alike come from different tables or passages of the source. Marks after values point to notes of the source that are not given here.

Tests used:
Molt-4-luc leukemia = format: in vivo
Experimental: Temperature and relative humidity were monitored daily.
The tumor cells were routinely subcultured twice weekly.
Whole body and metastatic bioluminescence were measured and recorded.
Tumor growth curve was plotted with median relative bioluminescence.

[1] = system: MDA-MB-436 human breast cancer; assay: Subcutaneous MDA-MB-436 human breast cancer xenograft model, tumor volume and weight; format: in vivo, female BALB/c nude mice
Experimental: The in vivo anti-tumor efficacy of KHJ, KH103, and KHGD in the subcutaneous MDA-MB-436 human breast cancer model in female BALB/c nude mice was evaluated.
The animals used were of the species Mus musculus, strain BALB/c nude, age 6-8 weeks, and female. The body weight was 18-22 g. The number of animals was 90 mice, plus spare. The animal supplier was Shanghai BK Laboratory Animal Co., LTD.
The tumor cells were routinely subcultured twice weekly by trypsin-EDTA treatment.
Each mouse was inoculated subcutaneously at the right flank with MDA-MB-436 tumor cells (1×10^7) in 0.1 ml of PBS supplemented with BD Matrigel (1:1) for tumor development. The prophylactic treatments were started 13 days before inoculation. The therapeutic treatments were started on day 9 after tumor inoculation when the average tumor size reached approximately 81 mm^3. Each group consisted of 10 tumor-bearing mice. The testing article was administrated to the mice according to the predetermined regimen as shown in the experimental design Table 21 (prophylactic) and Table 22 (therapeutic).
The major endpoint was to see if the tumor growth could be delayed or mice could be cured. Tumor size was measured twice weekly in two dimensions using a caliper, and the volume was expressed in mm^3 using the formula: V=0.5 a×b^2 where a and b are the long and short diameters of the tumor, respectively. The tumor size was then used for calculations of both T-C and T/C values. T-C was calculated with T as the time (in days) required for the mean volume of treatment group tumors to reach 600 mm^3, and C as the time (in days) for the mean volume of control group tumors to reach the same size. The T/C value (in percent) is an indication of antitumor effectiveness; T and C are the mean volumes of the treated and control groups, respectively, on a given day.
ΔTGI was calculated for each group using the formula: ΔTGI (%)=[1−(Ti−T0)/(Vi−V0)]×100; Ti is the average tumor volume of a treatment group on a given day, T0 is the average tumor volume of the treatment group on the day of treatment start, Vi is the average tumor volume of the vehicle control group on the same day with Ti, and V0 is the average tumor volume of the vehicle group on the day of treatment start.
Tumor pictures were taken and tumor weight was measured at the study termination. T/Cweight value (in percent) was calculated using the formula: T/Cweight%=Tweight/Cweight×100% where Tweight and Cweight were the mean tumor weights of the treated and vehicle control groups, respectively.
Statistical analyses of differences in tumor volume and tumor weight among the groups were conducted on the data obtained when the average tumor volume of vehicle-therapeutic group reached 2,000 mm^3 (Day 71 after inoculation).
One-way ANOVA was performed to compare tumor volume and tumor weight among groups, and when a significant F-statistics (a ratio of treatment variance to the error variance) was obtained, comparisons between groups were carried out with Dunnett t-tests.

[2] = format: in vivo, female BALB/c nude mice
Experimental: At the time of routine monitoring, the animals were daily checked for any effects of tumor growth and treatments on normal behavior such as mobility, food and water consumption (by looking only), body weight gain/loss (body weights were measured twice weekly), eye/hair matting and any other abnormal effect as stated in the protocol. Death and observed clinical signs were recorded on the basis of the numbers of animals within each subset.
Animal body weight was monitored regularly as an indirect measure of toxicity (FIG. 54A-B). No group lost weight as a result of test article administration, except the prophylactic KHGD Group 4 which was found with sign of emaciation and dehydration due to the 3 days' whole-day supply of KHGD.

3T3-L1 adipocytes = assay: Glucose uptake assay (2-deoxy-D-[3H]-glucose) in 3T3-L1 adipocytes; format: cell-based; conditions: for EC50: read-out: Insulin EC50
[3] = day 111 after the cell injection, positive control, treatment right after cell injection, of 6 mice
[4] = 2014 Aug. 27, insulin dose 0.01 nM
[5] = 2014 Aug. 27, insulin dose 0.03 nM
[6] = 2014 Aug. 27, insulin dose 0.09 nM
[7] = 2014 Aug. 27, insulin dose 0.27 nM
[8] = 2014 Aug. 27, insulin dose 7.41 nM
[9] = 2014 Aug. 27, insulin dose 22.2 nM
[10] = 2014 Aug. 27, insulin dose 66.7 nM
[11] = 2014 Aug. 27, insulin dose 200 nM
[12] = 2014 Aug. 28, insulin dose 0.27 nM
[13] = 2014 Aug. 28, insulin dose 2.47 nM
[14] = 2014 Aug. 28, insulin dose 7.41 nM
[15] = 2014 Aug. 28, insulin dose 22.2 nM
[16] = 2014 Aug. 28, insulin dose 66.7 nM
[17] = 2014 Aug. 28, insulin dose 200 nM
[18] = 2014 Jul. 11, insulin dose 0.82 nM
[19] = 2014 Jul. 11, insulin dose 7.41 nM
[20] = 2014 Jul. 11, insulin dose 22.22 nM
[21] = 2014 Jul. 11, insulin dose 66.67 nM
[22] = 2014 Jul. 11, insulin dose 200 nM
[23] = 2014 Jul. 14, insulin dose 0.09 nM
[24] = 2014 Jul. 14, insulin dose 0.82 nM
[25] = 2014 Jul. 14, insulin dose 2.47 nM
[26] = 2014 Jul. 14, insulin dose 7.41 nM
[27] = 2014 Jul. 14, insulin dose 22.2 nM
[28] = 2014 Jul. 14, insulin dose 66.7 nM
[29] = 2014 Jul. 14, insulin dose 200 nM
[30] = Insulin dose 0.09 nM, duplicates
[31] = Insulin dose 7.41 nM, duplicates
[32] = Insulin dose 22.2 nM, duplicates
[33] = Insulin dose 66.7 nM, duplicates
[34] = Insulin dose 200 nM, duplicates

O=P1(N(CCCl)CCCl)NCCCO1 (stereo not shown) [Cyclophosphamide]
survival until day 150 (Molt-4-luc leukemia; all mice of the group): died | median relative bioluminescence (Molt-4-luc leukemia; day 50 after cell implantation, treatment given right after cell injection (therapeutic / positive control group), vehicle 153.43): 1.40 | Animals # with bioluminescence signal (Molt-4-luc leukemia; [3]): 1 | Survival animals # (Molt-4-luc leukemia; [3]): 5 | survival of mice (Molt-4-luc leukemia; day 111 after the cell injection, six mice per group, vehicle: two mice died): one mouse died | day at which one mouse died (Molt-4-luc leukemia; mouse, in vivo): 57 days

CC(=O)O[C@H]1C(=O)[C@@]2(C)[C@H]([C@H](OC(=O)c3ccccc3)[C@]3(O)C[C@H](OC(=O)[C@H](O)[C@@H](NC(=O)c4ccccc4)c4ccccc4)C(C)=C1C3(C)C)[C@]1(OC(C)=O)CO[C@@H]1C[C@@H]2O [Paclitaxel]
Tumor Size at day 71 ([1]; therapeutic arm, Mean ± SEM at day 71 after inoculation): 637 ± 211 mm^3 | Tumor Weight at day 78 ([1]; therapeutic arm, Mean ± SEM at day 78 after inoculation): 0.67 ± 0.23 g | ΔTGI ([1]; therapeutic arm, day 71): 71% | T-C at 600 mm^3 ([1]; therapeutic arm, tumor growth delay at tumor size 600 mm^3): 23 days | T/C ([1]; therapeutic arm, tumor volume at day 71 vs vehicle-therapeutic): 31% | T/Cweight ([1]; therapeutic arm, tumor weight at day 78 vs vehicle-therapeutic): 39.6% | antitumor activity ([1]; therapeutic arms): statistically significant antitumor activity | tumor growth delay at tumor size of 600 mm^3 ([1]; therapeutic arms, compared with the vehicle group): 23 days | T/C value ([1]; therapeutic arms, day 71): 31% | mean tumor size ([1]; therapeutic arms, day 71 after tumor inoculation, vehicle 2,025, Paclitaxel 1.5 mg/kg, BIW×9 weeks): 637 mm^3 | mortality ([2]; Group 6, days after the start of therapeutic treatment, possibly due to drug toxicity): died on day 20 and day 63 | BWL > 20% ([2]; mouse, in vivo): 0 | Subtotal mice# lost/N ([2]; therapeutic arm): 2/10 | mortality ([2]; therapeutic arm, number of animals, n=10): 2^a (D20, 63)^b

Insulin
% Activity (3T3-L1 adipocytes; [4]): 5% and 6% | Count (3T3-L1 adipocytes; [4]): 2169 and 2178 | % Activity (3T3-L1 adipocytes; [5]): −8% and −12% | Count (3T3-L1 adipocytes; [5]): 2065 and 2030 | % Activity (3T3-L1 adipocytes; [6]): 6% and 4% | Count (3T3-L1 adipocytes; [6]): 2177 and 2166 | % Activity (3T3-L1 adipocytes; [7]): 2% and −7% | Count (3T3-L1 adipocytes; [7]): 2145 and 2075 | Count (3T3-L1 adipocytes; 2014 Aug. 27, insulin dose 0.82 nM): 2390 and 2146 | Count (3T3-L1 adipocytes; 2014 Aug. 27, insulin dose 2.47 nM): 2131 and 2284 | % Activity (3T3-L1 adipocytes; [8]): 54% and 42% | Count (3T3-L1 adipocytes; [8]): 2579 and 2483 | % Activity (3T3-L1 adipocytes; [9]): 53% and 61% | Count (3T3-L1 adipocytes; [9]): 2573 and 2636 | % Activity (3T3-L1 adipocytes; [10]): 90% and 93% | Count (3T3-L1 adipocytes; [10]): 2877 and 2903 | % Activity (3T3-L1 adipocytes; [11]): 52% and 59% | Count (3T3-L1 adipocytes; [11]): 2565 and 2617 | Count (3T3-L1 adipocytes; 2014 Aug. 28, insulin dose 0.01 nM): 1918 and 2052 | Count (3T3-L1 adipocytes; 2014 Aug. 28, insulin dose 0.03 nM): 2281 and 2003 | Count (3T3-L1 adipocytes; 2014 Aug. 28, insulin dose 0.09 nM): 2130 and 2378 | % Activity (3T3-L1 adipocytes; [12]): 19% and 24% | Count (3T3-L1 adipocytes; [12]): 2258 and 2306 | Count (3T3-L1 adipocytes; 2014 Aug. 28, insulin dose 0.82 nM): 2111 and 2261 | % Activity (3T3-L1 adipocytes; [13]): 13% and 22% | Count (3T3-L1 adipocytes; [13]): 2208 and 2286 | % Activity (3T3-L1 adipocytes; [14]): 39% and 41% | Count (3T3-L1 adipocytes; [14]): 2427 and 2442 | % Activity (3T3-L1 adipocytes; [15]): 84% and 48% | Count (3T3-L1 adipocytes; [15]): 2812 and 2503 | % Activity (3T3-L1 adipocytes; [16]): 75% and 85% | Count (3T3-L1 adipocytes; [16]): 2736 and 2827 | % Activity (3T3-L1 adipocytes; [17]): 85% and 56% | Count (3T3-L1 adipocytes; [17]): 2813 and 2574 | Count (3T3-L1 adipocytes; 2014 Jul. 11, insulin dose 0.09 nM): 760 and 587 | Count (3T3-L1 adipocytes; 2014 Jul. 11, insulin dose 0.27 nM): 709 and 761 | % Activity (3T3-L1 adipocytes; [18]): 28% and 17% | Count (3T3-L1 adipocytes; [18]): 800 and 746 | Count (3T3-L1 adipocytes; 2014 Jul. 11, insulin dose 2.47 nM): 736 and 828 | % Activity (3T3-L1 adipocytes; [19]): 47% and 70% | Count (3T3-L1 adipocytes; [19]): 884 and 992 | % Activity (3T3-L1 adipocytes; [20]): 47% and 72% | Count (3T3-L1 adipocytes; [20]): 887 and 1000 | % Activity (3T3-L1 adipocytes; [21]): 68% and 72% | Count (3T3-L1 adipocytes; [21]): 979 and 1000 | % Activity (3T3-L1 adipocytes; [22]): 68% and 70% | Count (3T3-L1 adipocytes; [22]): 980 and 989 | % Activity (3T3-L1 adipocytes; [23]): 3% and 11% | Count (3T3-L1 adipocytes; [23]): 1033 and 1075 | Count (3T3-L1 adipocytes; 2014 Jul. 14, insulin dose 0.27 nM): 1118 and 1018 | % Activity (3T3-L1 adipocytes; [24]): 12% | Count (3T3-L1 adipocytes; [24]): 1082 and 1083 | % Activity (3T3-L1 adipocytes; [25]): 55% and 32% | Count (3T3-L1 adipocytes; [25]): 1317 and 1191 | % Activity (3T3-L1 adipocytes; [26]): 59% and 41% | Count (3T3-L1 adipocytes; [26]): 1335 and 1238 | % Activity (3T3-L1 adipocytes; [27]): 61% and 63% | Count (3T3-L1 adipocytes; [27]): 1347 and 1362 | % Activity (3T3-L1 adipocytes; [28]): 64% and 42% | Count (3T3-L1 adipocytes; [28]): 1364 and 1243 | % Activity (3T3-L1 adipocytes; [29]): 97% and 106% | Count (3T3-L1 adipocytes; [29]): 1545 and 1591 | Count (3T3-L1 adipocytes; Insulin dose 0.03 nM, duplicates): 2039 and 1067 | % Activity (3T3-L1 adipocytes; [30]): −3% and −4% | Count (3T3-L1 adipocytes; [30]): 2101 and 2091 | Count (3T3-L1 adipocytes; Insulin dose 0.27 nM, duplicates): 2196 and 2340 | Count (3T3-L1 adipocytes; Insulin dose 0.82 nM, duplicates): 2069 and 2263 | % Activity (3T3-L1 adipocytes; [31]): 31% and 39% | Count (3T3-L1 adipocytes; [31]): 2395 and 2466 | % Activity (3T3-L1 adipocytes; [32]): 58% and 63% | Count (3T3-L1 adipocytes; [32]): 2633 and 2673 | % Activity (3T3-L1 adipocytes; [33]): 70% and 61% | Count (3T3-L1 adipocytes; [33]): 2736 and 2660 | % Activity (3T3-L1 adipocytes; [34]): 80% and 62% | Count (3T3-L1 adipocytes; [34]): 2820 and 2663 | EC50 (3T3-L1 adipocytes; run of 2014 Aug. 27): 2.54 nM | EC50 (3T3-L1 adipocytes; run of 2014 Aug. 28): 6.94 nM | EC50 (3T3-L1 adipocytes; run of 2014 Aug. 29): 6.66 nM | EC50 (3T3-L1 adipocytes; run of 2014 Jul. 11): 3.96 nM | EC50 (3T3-L1 adipocytes; run of 2014 Jul. 14): 2.46 nM
